# Measured values from patent publication US10624852B2, “Liposomes comprising a calcium phosphate-containing precipitate” (The University of North Carolina at Chapel Hill, priority 2009, dated 2020).
# Non-standard residues stand in square brackets, D forms with d. No end group written: not given here. pY = N[C@@H](Cc1ccc(OP(=O)(O)O)cc1)C(=O)O
# Columns and labels:
# [1] = Trapping / encapsulation efficiency; assay type: physicochemical; conditions: cargo encapsulated in LCP-II
# Protocol: To […] calculate the trapping efficiency of siRNA in the LCP nanoparticles, the anti-luciferase siRNA was replaced with a carboxyfluoroscein (FAM)-labeled siRNA having the same sequence (Dharmacon Inc, Lafayette, Colo.). The FAM-labeled siRNA LCP nano-particles were dissolved in lysis buffer (2 mM EDTA and 0.05% Trixton-100 in pH 7.8 Tris buffer) for quantitative analysis of the siRNA encapsulation efficiency. Standard siRNA solutions were prepared by diluting the FAM-labeled siRNA in the same lysis buffer. Then, 100 μl of the standard siRNA solution or the LCP solution was added to a 96-well plate and the fluorescence intensity was measured at 525 nm with a plate reader (Plate Chameleon Multilabel Detection Platform, Bioscan Inc., Washington D.C.). The amount of entrapped siRNA in the LCP nanoparticles was calculated based on the standard calibration curve.
# H-460 cells = experiment: Calcium release in live cells (Fura-2 imaging); assay type: cell-based, human; conditions: 20 μM cytochalasin D, cells with LCP nanoparticles
# Protocol: Two μl of 2 mM Fura-2 AM and 2 μl of 20% Pluronic-127 were mixed for 5 min and added to 1 ml phenol red free DMEM cell culture medium before use. About 5×10^4 H-460 cells were incubated in a Lab-Tek 8-well glass chamber slide system (Fisher, Pittsburgh, Pa.) for 24 h. Two hundred μl of a 2 μM Fura-2 AM solution was added to the cell culture chamber, followed by a 50 min incubation. After washing two times with PBS, the cells were incubated in phenol red-free DMEM cell culture medium and imaged with a Nikon TE2000U microscope and OrcaER camera. Emission was monitored at 510 nm with an alternating excitation wavelength of 340 nm and 380 nm from a Xenon light source. After adding 50 μl of LCP nanoparticles, fluorescence image was obtained by setting the excitation wavelength at 340 nm for green color and 380 nm for red color. The ratio of 340 nm/380 nm was proportional to the intracellular free Ca^2+ concentration (Hirst et al. (1999) Methods Mol Biol 114:31-39). All experiments were performed at room temperature.
# To study the inhibition of endocytosis, 20 mM cytochalasin D was prepared in DMSO solution and freshly diluted 1,000 times by phenol red-free DMEM medium for use. After incubating with Fura-2 AM for 60 min and 20 μM cytochalasin D for 5 min, cells were imaged as described in the presence of LCP nanoparticles.
Compound,trapping efficiency in LCP-II nanoparticles [1],effect on LCP-induced color change (endocytosis inhibition) (H-460 cells)
"O=C([O-])c1ccccc1-c1c2ccc(=O)cc-2oc2cc([O-])ccc12.[Na+].[Na+] [sodium fluorescein, reference compound]",about 40%,–
EEEEpYFELV (EEEE[pY]FELV) [peptide wherein the tyrosine (Y) is phosphorylated],~82%,–
Nc1ccn([C@@H]2O[C@H](COP(=O)(O)O)[C@@H](O)[C@@H]2O)c(=O)n1 [AraC monophosphate],about 94%,–
C=C1[C@@H](C)[C@H]2[C@H](Cc3ccccc3)NC(=O)[C@]23[C@H](OC(C)=O)/C=C/[C@@](C)(O)C(=O)[C@@H](C)C/C=C/[C@H]3[C@@H]1O [cytochalasin D],–,significantly reduced the color change
"Nc1ccn(C2OC(COP(=O)(O)O)[C@H](O)C2(F)F)c(=O)n1 (some centres unmarked) [gemcitabine monophosphate, Gemcitabine monophosphate]",~88%,–
